Reference: US20240000074A1, “LOW DRIFT, RAINFASTNESS, HIGH SPREADING, HIGH UPTAKE AND ULV TANK MIX ADJUVANT FORMULATION” (BAYER AKTIENGESELLSCHAFT, priority 2020, published 2024)

Test system: Apple leaf cuticles
Experiment: Apple cuticle penetration test (SOFU, simulation of foliar uptake)
Assay type: in vitro ADME
Settings: Spray volume 650 l/ha; no additives
From the text: The cuticle penetration test is a further developed and adapted version of the test method SOFU (simulation of foliar uptake) originally described by Schonherr and Baur (Schonherr, J., Baur, P. (1996), Effects of temperature, surfactants and other adjuvants on rates of uptake of organic compounds. In: The plant cuticle—an integrated functional approach, 134-155. Kerstiens, G. (ed.), BIOS Scientific publisher, Oxford); it is well suited for systematic and mechanistic studies on the effects of formulations, adjuvants and solvents on the penetration of agrochemicals.
Apple leaf cuticles were isolated from leaves taken from trees growing in an orchard as described by Schönherr and Riederer (Schönherr, J., Riederer, M. (1986), Plant cuticles sorb lipophilic compounds during enzymatic isolation. Plant Cell Environ. 9, 459-466). Only the astomatous cuticular membranes of the upper leaf surface lacking stomatal pores were obtained. Discs having diameters of 18 mm were punched out of the leaves and infiltrated with an enzymatic solution of pectinase and cellulase. […] After storage for about four weeks the permeability of the cuticles reaches a constant level and the cuticular membranes are ready for the use in the penetration test. […]
An autosampler took aliquots of the acceptor in regular intervals and the content of active ingredient is determined by HPLC (DAD or MS). […]

| Structure (SMILES) | Penetration rate of tebuconazole After 24 hours [%] | Penetration rate of spirotetramate After 48 hours [%] |
| --- | --- | --- |
| CC(C)(C)C(O)(CCc1ccc(Cl)cc1)Cn1cncn1 (centres unmarked) [tebuconazole] | 4 |  |
| CCOC(=O)OC1=C(c2cc(C)ccc2C)C(=O)N[C@]12CC[C@@H](OC)CC2 [spirotetramate] |  | 0 |
